This note sets out measurements from BindingDB's records for doi:10.1021/jm00043a010 (University of South Florida, 1994).

SMILES strings stand for the structures.

In this assay the target is Adenosine receptor A1 (Mesocricetus auratus). Briefly: Inhibition of specific binding of [3H]CPX to the A1 adenosine receptor in DDT1 MF-2 (DDT) cells.
In the case of `CCCn1c(=O)c2[nH]c(CNC(=O)CBr)nc2n(CCC)c1=O` [2-Bromo-N-(2,6-dioxo-1,3-dipropyl-2,3,6,7-tetrahydro-1H-purin-8-ylmethyl)-acetamide], the IC50 – broadly, the concentration that inhibits the measured activity by half – stood at 11 µM. Consider `CCCn1c(=O)c2[nH]c(CCNC(=O)CBr)nc2n(CCC)c1=O` [2-Bromo-N-[2-(2,6-dioxo-1,3-dipropyl-2,3,6,7-tetrahydro-1H-purin-8-yl)-ethyl]-acetamide], for which the IC50 amounted to 4 µM. With `CCCn1c(=O)c2[nH]c(CCCCCNC(=O)CBr)nc2n(CCC)c1=O` [2-Bromo-N-[5-(2,6-dioxo-1,3-dipropyl-2,3,6,7-tetrahydro-1H-purin-8-yl)-pentyl]-acetamide] the figure was 1.2 µM; with `CCCn1c(=O)c2[nH]c(NC(=O)c3cccc(S(=O)(=O)F)c3)nc2n(CCC)c1=O` [3-(2,6-Dioxo-1,3-dipropyl-2,3,6,7-tetrahydro-1H-purin-8-ylcarbamoyl)-benzenesulfonyl fluoride], 3.5 µM. The same measure for `CCCn1c(=O)c2[nH]c(C3CCCC3)nc2n(CCCOC(=O)c2cccc(S(=O)(=O)F)c2)c1=O` [3-Fluorosulfonyl-benzoic acid 3-(8-cyclopentyl-2,6-dioxo-1-propyl-1,2,6,7-tetrahydro-purin-3-yl)-propyl ester]: 0.02 µM; for `CCCn1c(=O)c2[nH]c(CCCNC(=O)c3cccc(S(=O)(=O)F)c3)nc2n(CCC)c1=O` [3-[3-(2,6-Dioxo-1,3-dipropyl-2,3,6,7-tetrahydro-1H-purin-8-yl)-propylcarbamoyl]-benzenesulfonyl fluoride]: 2.6 µM. With `CCCn1c(=O)c2[nH]c(NC(=O)c3ccc(S(=O)(=O)F)cc3)nc2n(CCC)c1=O` [4-(2,6-Dioxo-1,3-dipropyl-2,3,6,7-tetrahydro-1H-purin-8-ylcarbamoyl)-benzenesulfonyl fluoride] the figure was 4.2 µM; with `CCCn1c(=O)c2[nH]c(C3CCC(OC(=O)c4ccc(S(=O)(=O)F)cc4)C3)nc2n(CCC)c1=O` (centres undefined) [4-Fluorosulfonyl-benzoic acid 3-(2,6-dioxo-1,3-dipropyl-2,3,6,7-tetrahydro-1H-purin-8-yl)-cyclopentyl ester], 0.06 µM; with `CCCn1c(=O)c2[nH]c(CCNC(=O)c3ccc(S(=O)(=O)F)cc3)nc2n(CCC)c1=O` [4-[2-(2,6-Dioxo-1,3-dipropyl-2,3,6,7-tetrahydro-1H-purin-8-yl)-ethylcarbamoyl]-benzenesulfonyl fluoride], 0.7 µM. Consider `CCCn1c(=O)c2[nH]c(CNC(=O)c3ccc(S(=O)(=O)F)cc3)nc2n(CCC)c1=O` [4-[(2,6-Dioxo-1,3-dipropyl-2,3,6,7-tetrahydro-1H-purin-8-ylmethyl)-carbamoyl]-benzenesulfonyl fluoride], for which the IC50 came out at 2 µM. With `CCCn1c(=O)c2[nH]c(-c3ccc(Cl)c([N+](=O)[O-])c3)nc2n(CCC)c1=O` [8-(4-Chloro-3-nitro-phenyl)-1,3-dipropyl-3,7-dihydro-purine-2,6-dione] the figure was 7 µM; with `CCCn1c(=O)c2[nH]c(CCCCCN3C(=O)C=CC3=O)nc2n(CCC)c1=O` [8-[5-(2,5-Dioxo-2,5-dihydro-pyrrol-1-yl)-pentyl]-1,3-dipropyl-3,7-dihydro-purine-2,6-dione], 2.2 µM.

`O=C(OCCCn1c(=O)c2[nH]c(C3CCCC3)nc2n(CCCOC(=O)c2ccc(S(=O)(=O)F)cc2)c1=O)c1ccc(S(=O)(=O)F)cc1` [8-cyclopentyl-1,3-di[3-(4-fluorosulfonylphenylcarbonyloxy)propyl]-2,6-dioxo-2,3,6,7-tetrahydro-1H-purine]: the IC50 was 3.5 µM.

`CCCn1c(=O)c2[nH]c(CNC(=O)c3ccccc3)nc2n(CCC)c1=O` [N-(2,6-Dioxo-1,3-dipropyl-2,3,6,7-tetrahydro-1H-purin-8-ylmethyl)-benzamide]: the IC50 is 6.3 µM.
